# Data from US20240156790A1, “COMPOUNDS, COMPOSITIONS, AND METHODS FOR MODULATING FERROPTOSIS AND TREATING EXCITOTOXIC DISORDERS” (THE TRUSTEES OF COLUMBIA UNIVERSITY IN THE CITY OF NEW YORK, priority 2018, published 2024).
# Entries after “also recorded” stand apart in the source; their conditions may differ.
# Key:
# HT-1080 cells = assay: Rescue activity of Fer-1 analogs: inhibition of erastin-, IKE- or RSL3-induced death (Alamar Blue viability); format: cell-based
# [1] = Microsomal stability, mouse liver microsomes (Table 1); format: in vitro ADME, Mouse: CD1; conditions: CD1, mouse, liver microsomes, Mouse: CD1; read-out: Microsomal Stability t1/2
# Protocol: Each compound (1 μM) is incubated with mouse plasma, for 4 hours at 37° C., with shaking at 100 rpm. The concentration of compound in the buffer and plasma chambers is determined using LC-MS/MS. Metabolism of each compound is predicted using Sites of Metabolism (Schrodinger Suite), which combines intrinsic reactivity analysis (Hammett-Taft) with induced fit docking against 2C9, 2D6 and 3A4. This approach identifies 90% of known metabolism sites and has a false positive rate of 17%. The in vitro metabolic stability of each compound in mouse liver microsomes is determined. Pooled mouse liver microsomes are prepared and stored at −80° C. until needed. […]
# [2] = Microsomal stability, pig (Table 1); format: in vitro ADME; conditions: liver microsomes; Pig: Göttingen Minipig; read-out: Microsomal Stability t1/2
# [3] = Microsomal stability, rat (Table 1); format: in vitro ADME; conditions: liver microsomes; Rat: Sprague Dawley; read-out: Microsomal Stability t1/2 (converted)
# [4] = Human; value marked ^1, Hofmans et al., 2016; cited from earlier work
# [5] = Plasma stability, mouse plasma (Table 1); format: in vitro ADME
# R6/2 mice = assay: 45-day drinking water and PO study of ferrostatins in R6/2 mice (weight, survival, Rotarod, Catwalk, LC/MS); format: in vivo
# Protocol: Ferrostatins and 42 μM Citric acid were dissolved in 5% DMSO, 5% ethanol, and 90% PBS rendering a final concentration of 0.29 mg/mL of each ferrostatin in drinking water. The mice drink ˜2 mL water per day, and the resulting dosage was around 20-30 mg/kg/day. R6/2 mice at ˜6-7 weeks of age were treated via drinking water and PO at 20 mg/kg. Mice were weighed daily, the weight recorded, and the change in body weight compared to the baseline, pre-injection weight was calculated. Any mouse that lost more than 20% of its baseline body weight for three consecutive days was euthanized prior to the completion of the study. Mice were euthanized by CO2 asphyxiation for 3 min after administration. Approximately 0.5 mL of blood was collected via cardiac puncture and immediately put in K3 EDTA microtubes and kept on ice. Brains were harvested, placed in Eppendorf tubes, and frozen on dry ice. Blood samples were centrifuged for 10 min at 2,100×g at 4° C., then plasma was transferred to a clean tube and frozen on dry ice.
# Brain samples were weighed and placed in hard tissue homogenizing tubes. Two volume of HPLC grade methanol was added to make a solution and homogenized using the Omni Bead Ruptor 4 at speed 5 for two 30-second runs. The product was aliquoted and diluted by adding 900 μL HPLC grade ice-cold methanol. After centrifugation for 20 mins at 14,000×g at 4° C., supernatant was collected in a clean vial and dried by vacuum centrifugation (GeneVac).
# Prior to LC-MS analysis, the samples were resuspended in 100 μL methanol and centrifuged for 5 minutes at 14,000×g at 4° C. The supernatant was analyzed via SYNAPT High Resolution Mass Spectrometer.
# Rotarod “Linear Incline” experiment was performed with 11- to 12-week-old R6/2 mice at Day 25 with a rotations per minute (RPM) ramp over a 300s duration, start speed of 5 RPM, and max speed of 40 RPM. Mice were acclimated to testing room for 30 minutes prior to experimentation. Latency to fall was recorded in seconds for each mouse, and lanes were cleaned with 70% ethanol between mice.
# The Catwalk apparatus (Noldus Information Technology, Leesburg, VA) consisted of an illuminated walled glass walkway (130 cm×10 cm) and a high-speed camera underneath. Mice were allowed 30 minutes to acclimate to the testing room, then behavioral task was performed with 11- to 12-week-old R6/2 mice on Day 25. Mice were placed on the glass walkway and allowed to ambulate freely across the runway towards the goal box at the end of the walkway. A goal box blocked the other end of the walkway, forcing the mouse to return to the entryway. Each mouse completed Catwalk runs until three compliant runs (fluent crossings without stopping/hesitation), were detected and verified, running for as long as needed to do so. Behavioral measures were calculated using Noldus Gait Analysis Software, and pairing and further comparisons were done using RM one-way ANOVAs.
# The pharmacokinetic properties of TH-4-55-2 were initially assessed in vivo, focusing on its BBB distribution. Subsequent investigations involved TH-4-67 and TH-2-31. […] This regimen continued for 45 days, during which changes in body weight were monitored (FIG. 29A). Mouse body weights that fell under 20% of baseline measurements were sacrificed, while spontaneous deaths over the course of the study were monitored (FIG. 29B). Motor coordination was assessed via Rotarod behavior measurements (FIG. 30), and gait analysis was conducted using CatWalk (FIGS. 31A-31B).
smiles,measurement,setting,value
"CCOC(=O)c1ccc(NC2CCCCC2)c(N)c1 [Fer-1, Ferrostatin-1, reference compound]",EC50,"HT-1080 cells; Homo sapiens, ^a 50% viability, HT-1080 cells treated with 10 μM erastin",0.05 µM
same,half-life,[1],2.4 min
same,half-life,[2],16.2 min
same,half-life,[3],3 min
same,Microsomal Stability t1/2,[4],6.9 ± 0.2 min
same,Plasma Stability at six hours (% remaining),[5],0-2%
"Cc1noc(-c2ccc(NC3CCCCC3)c(NC3CCCCC3)c2)n1 [PHB4082, N1,N2-dicyclohexyl-4-(3-methyl-1,2,4-oxadiazol-5-yl)benzene-1,2-diamine]",increase in potency compared to fer-1,HT-1080 cells; suppressing erastin-induced ferroptosis,7 fold
"Cc1noc(-c2cnc(NC3CCCCC3)c(NC3CCCCC3)c2)n1 [TH-2-31, N^2,N^3-dicyclohexyl-5-(3-methyl-1,2,4-oxadiazol-5-yl)pyridine-2,3-diamine]",Catwalk gait: Base of Support (BOS),"R6/2 mice; PO, Day 25",significantly worse BOS compared to Vehicle; also recorded: significantly worse performance
"CCC(CC)Nc1cc(-c2nc(C)no2)cnc1NC1CCCCC1 [TH-4-55-2, N^2-cyclohexyl-5-(3-methyl-1,2,4-oxadiazol-5-yl)-N^3-(pentan-3-yl)pyridine-2,3-diamine]",Rotarod latency to fall,"R6/2 mice; PO 20 mg/kg, Day 25, 20 mg/kg",consistently scored higher compared to control; also recorded: consistently higher mean latency to fall across trials compared to control
same,accumulation in brain over plasma,"R6/2 mice; PO and drinking water, 45-day course",preferentially accumulated in the brain over plasma for both routes of administration
"Cc1noc(-c2cnc(NC3CCCC3)c(NC3CCCC3)c2)n1 [TH-4-67, N^2,N^3-dicyclopentyl-5-(3-methyl-1,2,4-oxadiazol-5-yl)pyridine-2,3-diamine]",Catwalk gait: Base of Support (BOS),"R6/2 mice; PO, Day 25",significant decrease in Base of Support (BOS); also recorded: significant improvement of BOS in the hind paws of least coordinated mice
same,Catwalk gait: Cadence,"R6/2 mice; PO, Day 25, Best performing mice",the leading compound among this group
